Source: ChEMBL document CHEMBL1135700, “Design, synthesis and activity of ascorbic acid prodrugs of nipecotic, kynurenic and diclophenamic acids, liable to increase neurotropic activity” (2002)

Columns and labels:
[1] = biological target: Solute carrier family 23 member 2 (Homo sapiens) (UniProt Q9UGH3); settings: 24 uM
Description: [14C]- AA uptake mediated by sodium-dependent ascorbate transporters, SVCT2 measured as Michaelis-Menten constant (Kt) at a concentration of 24 uM

[2] = biological target: Solute carrier family 23 member 2 (Homo sapiens) (UniProt Q9UGH3); settings: 120 uM
Description: [14C]- AA uptake mediated by sodium-dependent ascorbate transporters, SVCT2 measured as Michaelis-Menten constant (Kt) at a concentration of 120 uM

[3] = biological target: Solute carrier family 23 member 2 (Homo sapiens) (UniProt Q9UGH3); settings: 12 uM
Description: [14C]- AA uptake mediated by sodium-dependent ascorbate transporters, SVCT2 measured as Michaelis-Menten constant (Kt) at a concentration of 12 uM

[4] = biological target: Solute carrier family 23 member 2 (Homo sapiens) (UniProt Q9UGH3); settings: 6 uM
Description: [14C]- AA uptake mediated by sodium-dependent ascorbate transporters, SVCT2 measured as Michaelis-Menten constant (Kt) at a concentration of 6 uM

[5] = biological target: Solute carrier family 23 member 2 (Homo sapiens) (UniProt Q9UGH3); settings: 60 uM
Description: [14C]- AA uptake mediated by sodium-dependent ascorbate transporters, SVCT2 measured as Michaelis-Menten constant (Kt) at a concentration of 60 uM

[6] = tested on: O=C(O)Cc1ccccc1Nc1c(Cl)cccc1Cl; settings: 60 uM
Description: ([14C]- AA) and its uptake mediated by sodium-dependent ascorbate transporters, SVCT2 measured as Maximum velocity (Vmax) at concentration of 60 uM

[7] = tested on: O=C(O)Cc1ccccc1Nc1c(Cl)cccc1Cl; settings: 24 uM
Description: ([14C]- AA) and its uptake mediated by sodium-dependent ascorbate transporters, SVCT2 measured as Maximum velocity (Vmax) at concentration of 24 uM

[8] = tested on: O=C(O)Cc1ccccc1Nc1c(Cl)cccc1Cl; settings: 6 uM
Description: ([14C]- AA) and its uptake mediated by sodium-dependent ascorbate transporters, SVCT2 measured as Maximum velocity (Vmax) at concentration of 6 uM

[9] = tested on: O=C(O)Cc1ccccc1Nc1c(Cl)cccc1Cl; settings: 120 uM
Description: ([14C]- AA) and its uptake mediated by sodium-dependent ascorbate transporters, SVCT2 measured as Maximum velocity (Vmax) at concentration of 120 uM

[10] = tested on: O=C(O)Cc1ccccc1Nc1c(Cl)cccc1Cl; settings: 12 uM
Description: ([14C]- AA) and its uptake mediated by sodium-dependent ascorbate transporters, SVCT2 measured as Maximum velocity (Vmax) at concentration of 12 uM

Q: Which results are given for `O=C(O)Cc1ccccc1Nc1c(Cl)cccc1Cl`?
A: Kt [1]: 31 µM; Kt [2]: 28 µM; Kt [3]: 29 µM; Kt [4]: 32 µM; Kt [5]: 29 µM

Q: For “Solute carrier family 23 member 2 (Homo sapiens), Q9UGH3”, which Vmax (nM hr-1 (10e6*cells)-1) [6] is on record?
A: The Vmax (nM hr-1 (10e6*cells)-1) was 0.49.

Q: And the Vmax (nM hr-1 (10e6*cells)-1) [7]?
A: Its Vmax (nM hr-1 (10e6*cells)-1) is 1.4.

Q: What about the Vmax (nM hr-1 (10e6*cells)-1) [8] of the same compound?
A: Its Vmax (nM hr-1 (10e6*cells)-1) is 3.1.

Q: And the Vmax (nM hr-1 (10e6*cells)-1) [9]?
A: Its Vmax (nM hr-1 (10e6*cells)-1) is 0.26.

Q: What about the Vmax (nM hr-1 (10e6*cells)-1) [10] of the same compound?
A: The Vmax (nM hr-1 (10e6*cells)-1) was 2.
